Columns and labels:
Assay in all cases: Kinase inhibitor library screening, PrestoBlue cell viability, 1 or 10 μM, 72 h
[1] = tested on: A375 cells (parental)
Description: (§1) After 72 h of treatment, cell viability was assessed using the PrestoBlue Cell Viability Reagent (ThermoFisher Scientific). Measurements were performed with the CLARIOstar Monochromator microplate reader (BMG Labtech).
(§2) Kinase inhibitor library screening. […] Each cell line was treated in its sensitive form (parental), and also as 2 resistant derivatives, which were made resistant to either Vemurafenib (XP) or Dabrafenib (GP). Drugs were added at 2 different concentrations, 1 and 10 μM, for 72 h and cell viability was assessed using the PrestoBlue Cell Viability assay. Results are depicted as % viability compared to untreated cells. Each cell line was analyzed at least in duplicate. […] (XLSX 95 kb)

[2] = tested on: 501Mel cells (parental); conditions: 72 h
Description: as §1, §2

[3] = tested on: A375-XP cells (Vemurafenib-resistant)
Description: as §1, §2

[4] = tested on: IGR37 cells (parental)
Description: as §1, §2

[5] = tested on: 501Mel-XP cells (Vemurafenib-resistant); conditions: 72 h
Description: as §1, §2

[6] = tested on: A375-GP cells (Dabrafenib-resistant)
Description: as §1, §2

[7] = tested on: IGR37-GP cells (Dabrafenib-resistant)
Description: as §1, §2

[8] = tested on: 501Mel-GP cells (Dabrafenib-resistant); conditions: 72 h
Description: as §1, §2

[9] = tested on: IGR37-XP cells (Vemurafenib-resistant)
Description: as §1, §2

SMILES: Cn1cnc2c(F)c(Nc3ccc(Br)cc3Cl)c(C(=O)NOCCO)cc21 [AZD6244 (Selumetinib)]
- viability at 1 µM ([1]; Homo sapiens, A-375, 72 h, read-out: cell viability, A375 Parental, 1μΜ): 21.3%
- viability at 10 µM ([1]; Homo sapiens, A-375, 72 h, read-out: cell viability, A375 Parental, 10μΜ): 18.6%
- viability at 1 µM ([2]; Homo sapiens, read-out: cell viability, 501Mel Parental, 1μΜ): 61.6%
- viability at 10 µM ([2]; Homo sapiens, read-out: cell viability, 501Mel Parental, 10μΜ): 60.6%
- viability at 1 µM ([3]; Homo sapiens, A-375, 72 h, read-out: cell viability, A375 XP, 1μΜ): 42.3%
- viability at 10 µM ([3]; Homo sapiens, A-375, 72 h, read-out: cell viability, A375 XP, 10μΜ): 15%
- viability at 1 µM ([4]; Homo sapiens, IGR-37, 72 h, read-out: cell viability, IGR37 Parental, 1μΜ): 40.2%
- viability at 10 µM ([4]; Homo sapiens, IGR-37, 72 h, read-out: cell viability, IGR37 Parental, 10μΜ): 36.6%
- viability at 1 µM ([5]; Homo sapiens, read-out: cell viability, 501Mel XP, 1μΜ): 81.2%
- viability at 10 µM ([5]; Homo sapiens, read-out: cell viability, 501Mel XP, 10μΜ): 58.1%
- viability at 1 µM ([6]; Homo sapiens, A-375, 72 h, read-out: cell viability, A375 GP, 1μΜ): 29.4%
- viability at 10 µM ([6]; Homo sapiens, A-375, 72 h, read-out: cell viability, A375 GP, 10μΜ): 17.8%
- viability at 1 µM ([7]; Homo sapiens, IGR-37, 72 h, read-out: cell viability, IGR37 GP, 1μΜ): 92%
- viability at 10 µM ([7]; Homo sapiens, IGR-37, 72 h, read-out: cell viability, IGR37 GP, 10μΜ): 62.7%
- viability at 1 µM ([8]; Homo sapiens, read-out: cell viability, 501Mel GP, 1μΜ): 96.9%
- viability at 10 µM ([8]; Homo sapiens, read-out: cell viability, 501Mel GP, 10μΜ): 73.6%
- viability at 1 µM ([9]; Homo sapiens, IGR-37, 72 h, read-out: cell viability, IGR37 XP, 1μΜ): 83.3%
- viability at 10 µM ([9]; Homo sapiens, IGR-37, 72 h, read-out: cell viability, IGR37 XP, 10μΜ): 42.2%

SMILES: C[C@@H](Oc1cc(-c2cnn(C3CCNCC3)c2)cnc1N)c1c(Cl)ccc(F)c1Cl [Crizotinib (PF-02341066)]
- cell viability (kinase inhibitor library screening) ([1]; A375 Parental, 10μΜ, 72 h): 20.5%
- cell viability (kinase inhibitor library screening) ([1]; A375 Parental, 1μΜ, 72 h): 98.4%
- cell viability (kinase inhibitor library screening) ([2]; 501Mel Parental, 1μΜ): 97.3%
- cell viability (kinase inhibitor library screening) ([2]; 501Mel Parental, 10μΜ): 0.235%
- cell viability (kinase inhibitor library screening) ([3]; A375 XP, 1μΜ, 72 h): 99.3%
- cell viability (kinase inhibitor library screening) ([3]; A375 XP, 10μΜ, 72 h): 17.2%
- cell viability (kinase inhibitor library screening) ([4]; IGR37 Parental, 1μΜ, 72 h): 93.8%
- cell viability (kinase inhibitor library screening) ([4]; IGR37 Parental, 10μΜ, 72 h): 8.1%
- cell viability (kinase inhibitor library screening) ([5]; 501Mel XP, 1μΜ): 62.4%
- cell viability (kinase inhibitor library screening) ([5]; 501Mel XP, 10μΜ): -0.46%
- cell viability (kinase inhibitor library screening) ([6]; A375 GP, 1μΜ, 72 h): 94.9%
- cell viability (kinase inhibitor library screening) ([6]; A375 GP, 10μΜ, 72 h): 14.4%
- cell viability (kinase inhibitor library screening) ([7]; IGR37 GP, 1μΜ, 72 h): 97.3%
- cell viability (kinase inhibitor library screening) ([7]; IGR37 GP, 10μΜ, 72 h): 6.1%
- cell viability (kinase inhibitor library screening) ([8]; 501Mel GP, 1μΜ): 80.0%
- cell viability (kinase inhibitor library screening) ([8]; 501Mel GP, 10μΜ): -0.355%
- cell viability (kinase inhibitor library screening) ([9]; IGR37 XP, 1μΜ, 72 h): 100.4%
- cell viability (kinase inhibitor library screening) ([9]; IGR37 XP, 10μΜ, 72 h): 1.5%

SMILES: Nc1cccc(-c2cc3c(Oc4cccc(O)c4)ncnc3[nH]2)c1 [TWS119]
- cell viability, A375 Parental, 1μΜ ([1]; A375 Parental, 1μΜ, 72 h, in %): 93.6
- cell viability, A375 Parental, 10μΜ ([1]; A375 Parental, 10μΜ, 72 h, in %): 29.8
- cell viability, 501Mel Parental, 1μΜ ([2]; 501Mel Parental, 1μΜ, in %): 90.4
- cell viability, 501Mel Parental, 10μΜ ([2]; 501Mel Parental, 10μΜ, in %): 35.3
- cell viability, A375 XP, 1μΜ ([3]; A375 XP, 1μΜ, 72 h, in %): 96.8
- cell viability, A375 XP, 10μΜ ([3]; A375 XP, 10μΜ, 72 h, in %): 67.4
- cell viability, IGR37 Parental, 1μΜ ([4]; IGR37 Parental, 1μΜ, 72 h, in %): 100.4
- cell viability, IGR37 Parental, 10μΜ ([4]; IGR37 Parental, 10μΜ, 72 h, in %): 65.2
- cell viability, 501Mel XP, 1μΜ ([5]; 501Mel XP, 1μΜ, in %): 95.3
- cell viability, 501Mel XP, 10μΜ ([5]; 501Mel XP, 10μΜ, in %): 26.6
- cell viability, A375 GP, 1μΜ ([6]; A375 GP, 1μΜ, 72 h, in %): 97.7
- cell viability, A375 GP, 10μΜ ([6]; A375 GP, 10μΜ, 72 h, in %): 41.9
- cell viability, IGR37 GP, 10μΜ ([7]; IGR37 GP, 10μΜ, 72 h): 61.4%
- cell viability, IGR37 GP, 1μΜ ([7]; IGR37 GP, 1μΜ, 72 h, in %): 96.5
- cell viability, 501Mel GP, 10μΜ ([8]; 501Mel GP, 10μΜ, in %): 40.8
- cell viability, IGR37 XP, 10μΜ ([9]; IGR37 XP, 10μΜ, 72 h): 33.3%
- cell viability, IGR37 XP, 1μΜ ([9]; IGR37 XP, 1μΜ, 72 h, in %): 80.5

SMILES: CN(C[C@@H]1COCCO1)S(=O)(=O)Nc1ccc2ccc3ncc(-c4cnn(C)c4)cc3c(=O)c2c1 [MK-2461]
- cell viability (kinase inhibitor library screening) ([1]; A375 Parental, 10μΜ, 72 h): 78.1%
- cell viability (kinase inhibitor library screening) ([1]; A375 Parental, 1μΜ, 72 h): 106.3%
- cell viability (kinase inhibitor library screening) ([2]; 501Mel Parental, 1μΜ): 102.9%
- cell viability (kinase inhibitor library screening) ([2]; 501Mel Parental, 10μΜ): 83.3%
- cell viability (kinase inhibitor library screening) ([3]; A375 XP, 1μΜ, 72 h): 106.1%
- cell viability (kinase inhibitor library screening) ([3]; A375 XP, 10μΜ, 72 h): 88.4%
- cell viability (kinase inhibitor library screening) ([4]; IGR37 Parental, 1μΜ, 72 h): 103.2%
- cell viability (kinase inhibitor library screening) ([4]; IGR37 Parental, 10μΜ, 72 h): 84.5%
- cell viability (kinase inhibitor library screening) ([5]; 501Mel XP, 1μΜ): 77.5%
- cell viability (kinase inhibitor library screening) ([5]; 501Mel XP, 10μΜ): 30.0%
- cell viability (kinase inhibitor library screening) ([6]; A375 GP, 10μΜ, 72 h): 78.6%
- cell viability (kinase inhibitor library screening) ([7]; IGR37 GP, 10μΜ, 72 h): 28.3%
- cell viability (kinase inhibitor library screening) ([8]; 501Mel GP, 1μΜ): 90.6%
- cell viability (kinase inhibitor library screening) ([8]; 501Mel GP, 10μΜ): 45.5%
- cell viability (kinase inhibitor library screening) ([9]; IGR37 XP, 1μΜ, 72 h): 99.3%
- cell viability (kinase inhibitor library screening) ([9]; IGR37 XP, 10μΜ, 72 h): 6.5%

From article PMC6364417, “Kinase inhibitor library screening identifies synergistic drug combinations effective in sensitive and resistant melanoma cells” (Journal of Experimental & Clinical Cancer Research : CR, 2019)
